These results are taken from patent US5140018A, “1,3,2-benzodithiazole-1-oxide compounds” (Abbott Laboratories, priority 1991, dated 1992).

Values after ≈ are worked out from the molar mass of the structure shown. Where two headings read alike, the source gives them in different places.

A word on the MIC: it is the lowest concentration found to suppress growth.

Holding throughout (format): cell-based
In experiment [1] the test system is Aspergillus niger ATCC 16404. Put plainly: In vitro antifungal MIC, Aspergillus niger ATCC 16404. The settings on record: Aspergillus niger ATCC 16404, 35°-37° C., 48 hours. How it is done:
(§1) The in vitro antifungal activity of the compounds of the present invention against a variety of fungiwas determined as follow: Test medium was prepared by dissolving first 5 g of dextrose and then 6.7 g of Bacto Yeast Nitrogen Base® (commercially available from Difco Laboratories) in 100 mL of distilled water. The solution was filter-sterilized and diluted 1:10 with 0.01M pH 8.0 phosphate buffer solution, and the final pH of the medium adjusted to about pH 7.0 when necessary with either 0.1N hydrochloric acid solution of 0.1N sodium hydroxide solution. […] These concentrated stock solutions were diluted to a concentration of 200 μg/mL (twice the highest concentration desired for testing) with the test medium. Amphotericin B, similarly prepared, was used as a reference antifungal agent.
(§2) The test organisms were then inoculated into test tubes containing approximately 3 to 10 mL of test medium and the test tubes incubated overnight at 37° C. A sample of each overnight culture was placed in a test tube and diluted using the test medium until a reading of 95% transmittance was obtained in a conventional UV/visible spectrophotometer set to 560 nm. The adjusted cultures were then diluted 1:50 with test medium. These diluted cultures served as the inocula for the assays which follow and were used within 15 minutes of preparation.
(§3) Next, 2-fold serial dilutions of each test compound in test medium were prepared in a 96-well microtiter plate using calibrated microdiluters attached to an automatic (hand-held) diluter (available from Dynatech Laboratories).
(§4) Using sterile calibrated droppers or a multi-point dispenser, the diluted inoculum suspension was added to each of the wells in the plate. When inoculation was complete, the microtiter tray was covered with a plastic plate sealer to minimize evaporation. After the plate had been sealed, a hole was made above each well with a sterile 26-gauge syringe needle in order to allow gas exchange. If plate sealers were not available, the microtiter trays were stacked in groups of five or less with an empty tray on top. The microtiter trays were then incubated in a humidified chamber at 35°-37° C. for 48 hours or until growth was visible in the growth control wells.
(§5) The minimum inhibitory concentration (MIC) was defined as the lowest concentration of test compound yielding no growth, a slight haze or sparsely isolated colonies on the inoculum spot as compared to the growth control containing no test compound.

For experiment [2], the system named is Candida albicans ATCC 10231. The experiment is described as follows: In vitro antifungal MIC, Candida albicans ATCC 10231. The following applies: Candida albicans ATCC 10231, 35°-37° C., 48 hours. How it is done:
as §1, §2, §3, §4, §5

Experiment [3] has as its system Candida tropicalis NRRL-Y-112. The experiment is described as follows: In vitro antifungal MIC, Candida tropicalis NRRL-Y-112. The following applies: Candida tropicalis NRRL-Y-112, 35°-37° C., 48 hours. How it is done:
as §1, §2, §3, §4, §5

The test system of experiment [4] is Cryptococcus albidus ATCC 34140. The experiment is described as follows: In vitro antifungal MIC, Cryptococcus albidus ATCC 34140. The following applies: Cryptococcus albidus ATCC 34140, 35°-37° C., 48 hours. As for the experimental part: as §1, §2, §3, §4, §5
For experiment [5], the system named is Torulopsis glabrata ATCC 15545. The experiment is described as follows: In vitro antifungal MIC, Torulopsis glabrata ATCC 15545. The following applies: Torulopsis glabrata ATCC 15545, 35°-37° C., 48 hours. As for the experimental part:
as §1, §2, §3, §4, §5

Experiment [6] has as its system Candida albicans ATCC 62376. The experiment is described as follows: In vitro antifungal MIC, Candida albicans ATCC 62376. The following applies: Candida albicans ATCC 62376, 35°-37° C., 48 hours. How it is done: as §1, §2, §3, §4, §5
For experiment [7], the system named is Candida albicans ATCC 38247. The experiment is described as follows: In vitro antifungal MIC, Candida albicans ATCC 38247. The following applies: Candida albicans ATCC 38247, 35°-37° C., 48 hours. As for the experimental part:
as §1, §2, §3, §4, §5

Experiment [8] has as its system Candida albicans CCH 442. The experiment is described as follows: In vitro antifungal MIC, Candida albicans CCH 442. The settings on record: Candida albicans CCH 442, 35°-37° C., 48 hours. As for the experimental part: as §1, §2, §3, §4, §5
Experiment [9] has as its system Candida kefyr ATCC 28838. The experiment is described as follows: In vitro antifungal MIC, Candida kefyr ATCC 28838. The following applies: Candida kefyr ATCC 28838, 35°-37° C., 48 hours. How it is done:
as §1, §2, §3, §4, §5

The test system of experiment [10] is Candida albicans 579A. Put plainly: In vitro antifungal MIC, Candida albicans 579A. The following applies: Candida albicans 579A, 35°-37° C., 48 hours. As for the experimental part: as §1, §2, §3, §4, §5
The mark [11] stands for this setting: Naganishia albida, ATCC34140, read-out: MIC.
[12] abbreviates: Nakaseomyces glabratus, ATCC15545, read-out: MIC.
Setting [13] is: Kluyveromyces marxianus, ATCC28838, read-out: MIC.

For “2-n-octyl-5-methyl-1,3,2-benzodithiazole-1-oxide; 2-n-octyl-6-methyl-1,3,2-benzodithiazole-1-oxide [Example 40]”, the MIC in experiment [1] amounted to 1.56 µg/mL; in experiment [2], 1.56 µg/mL; in [3] it was 3.12 µg/mL; in experiment [4], 3.12 µg/mL; in [5], 3.12 µg/mL; in [6] it was 1.56 µg/mL. Also, the MIC in experiment [7] stood at 0.2 µg/mL; in [8], 3.12 µg/mL; in experiment [9], 0.78 µg/mL; in [10], 0.78 µg/mL.
Consider “2-phenylmethyl-5-methyl-1,3,2-benzodithiazole-1-oxide; 2-phenylmethyl-6-methyl-1,3,2-benzodithiazole-1-oxide [Example 41]”, for which the MIC in experiment [1] was determined as 1.56 µg/mL; in [2], 1.56 µg/mL; in experiment [3], 3.12 µg/mL; in experiment [4], 6.25 µg/mL; in experiment [5] it was 3.12 µg/mL; in [6] it was 1.56 µg/mL. The MIC in experiment [7] came out at 0.39 µg/mL; in [8], 3.12 µg/mL; in experiment [9] it was 0.78 µg/mL; in experiment [10] it was 0.78 µg/mL.
For the compound `[O-][S+]1c2ccccc2SN1CCc1ccccc1` (centres unmarked) [Example 1, 2-(2-Phenylethyl)-1,3,2-benzodithiazole-1-oxide], the MIC in experiment [1] (ATCC16404, read-out: MIC) amounted to 3.12 µg/mL (≈ 11.3 µM); in experiment [2] (ATCC10231, read-out: MIC), 0.78 µg/mL (≈ 2.83 µM); in [3] (NRRLY112, read-out: MIC), 3.12 µg/mL (≈ 11.3 µM); in experiment [4] (setting [11]) it was 3.12 µg/mL (≈ 11.3 µM); in experiment [5] (setting [12]), 1.56 µg/mL (≈ 5.66 µM); in [6] (ATCC62376, read-out: MIC), 0.78 µg/mL (≈ 2.83 µM). For the same compound, the MIC came out at 1.56 µg/mL (≈ 5.66 µM) in [7] (ATCC38247, read-out: MIC); 1.56 µg/mL (≈ 5.66 µM) in experiment [8] (CCH442, read-out: MIC); 0.78 µg/mL (≈ 2.83 µM) in [9] (setting [13]); 0.39 µg/mL (≈ 1.42 µM) in experiment [10] (read-out: MIC).
As for `CN1Sc2ccccc2[S+]1[O-]` (centres unmarked) [Example 2, 2-methyl-1,3,2-benzodithiazole-1-oxide], the MIC was 3.12 µg/mL (≈ 16.8 µM) in experiment [1] (ATCC16404, read-out: MIC); 1.56 µg/mL (≈ 8.42 µM) in experiment [2] (ATCC10231, read-out: MIC); 1.56 µg/mL (≈ 8.42 µM) in experiment [3] (NRRLY112, read-out: MIC); 3.12 µg/mL (≈ 16.8 µM) in [4] (setting [11]); 0.78 µg/mL (≈ 4.21 µM) in experiment [5] (setting [12]); 0.78 µg/mL (≈ 4.21 µM) in experiment [6] (ATCC62376, read-out: MIC). Moreover, the MIC in [8] (CCH442, read-out: MIC) is 1.56 µg/mL (≈ 8.42 µM); in [9] (setting [13]), 1.56 µg/mL (≈ 8.42 µM); in experiment [10] (read-out: MIC), 1.56 µg/mL (≈ 8.42 µM).
Consider `CCCN1Sc2ccccc2[S+]1[O-]` (centres unmarked) [Example 3, 2-n-propyl-1,3,2-benzodithiazole-1-oxide], for which the MIC was 6.25 µg/mL (≈ 29.3 µM) in experiment [1] (ATCC16404, read-out: MIC); 0.78 µg/mL (≈ 3.66 µM) in experiment [2] (ATCC10231, read-out: MIC); 0.78 µg/mL (≈ 3.66 µM) in experiment [3] (NRRLY112, read-out: MIC); 3.12 µg/mL (≈ 14.6 µM) in [4] (setting [11]); 0.78 µg/mL (≈ 3.66 µM) in experiment [5] (setting [12]); 0.78 µg/mL (≈ 3.66 µM) in [6] (ATCC62376, read-out: MIC). Further, the minimal inhibitory concentration (MIC) in experiment [7] (ATCC38247, read-out: MIC) turned out to be 3.12 µg/mL (≈ 14.6 µM); in experiment [8] (CCH442, read-out: MIC), 0.78 µg/mL (≈ 3.66 µM); in experiment [9] (setting [13]), 0.2 µg/mL (≈ 0.938 µM); in [10] (read-out: MIC), 0.78 µg/mL (≈ 3.66 µM).
As to `CCCCCN1Sc2ccccc2[S+]1[O-]` (centres unmarked) [Example 4, 2-n-pentyl-1,3,2-benzodithiazole-1-oxide], the MIC in experiment [1] (ATCC16404, read-out: MIC) came out at 0.39 µg/mL (≈ 1.62 µM); in experiment [2] (ATCC10231, read-out: MIC), 0.78 µg/mL (≈ 3.23 µM); in experiment [3] (NRRLY112, read-out: MIC), 50 µg/mL (≈ 207 µM); in experiment [4] (setting [11]), 6.25 µg/mL (≈ 25.9 µM); in [5] (setting [12]), 0.78 µg/mL (≈ 3.23 µM); in [6] (ATCC62376, read-out: MIC) it was 0.78 µg/mL (≈ 3.23 µM). Besides, the MIC came out at 3.12 µg/mL (≈ 12.9 µM) in experiment [7] (ATCC38247, read-out: MIC); 0.78 µg/mL (≈ 3.23 µM) in experiment [8] (CCH442, read-out: MIC); 0.78 µg/mL (≈ 3.23 µM) in [9] (setting [13]); 0.78 µg/mL (≈ 3.23 µM) in [10] (read-out: MIC).
Take `C#CCN1Sc2ccccc2[S+]1[O-]` (centres unmarked) [Example 12, 2-propargyl-1,3,2-benzodithiazole-1-oxide]: the MIC amounted to 1.56 µg/mL (≈ 7.45 µM) in experiment [1] (ATCC16404, read-out: MIC); 0.39 µg/mL (≈ 1.86 µM) in experiment [2] (ATCC10231, read-out: MIC); 1.56 µg/mL (≈ 7.45 µM) in [3] (NRRLY112, read-out: MIC); 1.56 µg/mL (≈ 7.45 µM) in experiment [4] (setting [11]); 0.39 µg/mL (≈ 1.86 µM) in [5] (setting [12]); 0.39 µg/mL (≈ 1.86 µM) in experiment [6] (ATCC62376, read-out: MIC). Moreover, the MIC in [8] (CCH442, read-out: MIC) worked out at 0.78 µg/mL (≈ 3.73 µM); in experiment [9] (setting [13]), 0.78 µg/mL (≈ 3.73 µM); in [10] (read-out: MIC), 0.78 µg/mL (≈ 3.73 µM).
